Results taken from US20210228525A1, “Methods of Administering Monomethyl Fumarate and Prodrugs Thereof Having Reduced Side Effects” (Arbor Pharmaceuticals, LLC, priority 2012, published 2021).

Assay: Randomized double-blind crossover food effect single-dose study: safety and tolerability (flushing, feeling hot)
Format: in vivo, human
Conditions: for Subjects reporting flushing: fasted group; for Subjects reporting feeling hot more than for placebo: fed or fasted groups
From the text: (§1) Twenty-four healthy adult volunteers (males and females) participated in the study. Twelve of the subjects received a dosage form of Example 3, once in a fed condition and once in a fasted condition, with a two-week washout between treatments. The fasted dosing was achieved by dosing the subject following an overnight fast while the fed dosing was achieved by dosing the subject after consuming a high fat-content breakfast.
as §1, with “Twelve” for “Twenty-four”, “All twelve” for “Twelve of the”, “5,” for “3,”
as §1, with “Twelve” for “Twenty-four”, “All twelve” for “Twelve of the”, “10,” for “3,”

[1] = Example 3 dosage form, 200 mg single dose
[2] = Example 5 dosage form, 200 mg single dose
[3] = Example 10 dosage form, single dose

SMILES: CCN(CC)C(=O)COC(=O)/C=C/C(=O)OC [Compound (1), (N,N-Diethylcarbamoyl)methyl methyl (2E)but-2-ene-1,4-dioate]
- Severity of all adverse events [1]: mild
- Tolerability during the trial [1]: well tolerated
- Subjects reporting flushing (Example 3 dosage form): No subjects
- Subjects reporting flushing more frequently than in the fed placebo group (Example 3 dosage form): One
- Subjects reporting feeling hot more than for placebo (Example 3 dosage form): no subjects
- Severity of all adverse events [2]: mild
- Tolerability during the trial [2]: well tolerated
- Subjects reporting flushing (Example 5 dosage form): No subjects
- Subjects reporting flushing more frequently than in the fed placebo group (Example 5 dosage form): Two
- Subjects reporting feeling hot more than for placebo (Example 5 dosage form): no subjects
- Adverse events reported in more than one subject and more frequently than for placebo [3]: flushing and feeling hot
- Severity of all adverse events [3]: mild
- Tolerability during the trial [3]: well tolerated
